Test results reported in publication PMC5053523, “In Vitro Antibacterial Activity of Rhodanine Derivatives against Pathogenic Clinical Isolates” (PLoS ONE, 2016).
In brackets after ≈: the same amount, converted by molar mass. Like-named read-outs stand apart in the source and are kept apart here.

Experiments:
[1] = tested on: methicillin-resistant Staphylococcus aureus (MRSA); assay: Broth microdilution MIC/MBC, MRSA; format: cell-based
[2] = tested on: Vancomycin Resistant Staphylococcus aureus (VRSA); assay: Broth microdilution MIC/MBC, VRSA; format: cell-based; details: for MBC / MIC: VRSA
[3] = tested on: Bacillus Strains; assay: Broth microdilution MIC50/MIC90 and MIC range, Bacillus strains panel; format: cell-based, Bacillus spp.; details: 10 Bacillus strains
Excerpt: The broth microdilution technique was used, followed by subculturing on agar plates that were rhodanine—free. […] The MICs reported represent the lowest concentration of each compound necessary to inhibit bacterial growth and the MBCs represent the lowest concentration required to reduce the initial bacterial inoculum by ≥ 99.9%.

[4] = tested on: Clostridium difficile; assay: MIC against Clostridium difficile, anaerobic broth dilution; format: cell-based; details: Clostridioides difficile
Summary of the method: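 Clinical C. difficile isolates grown anaerobically 48 h at 37 °C, suspended to 0.5 McFarland and diluted 1:300 in pre-reduced supplemented Brain Heart Infusion broth. Compounds serially diluted; plates incubated anaerobically at 37 °C for 48 h. MIC = lowest concentration with no visible growth.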

[5] = tested on: Mycobacterium smegmatis; assay: Broth microdilution MIC/MBC, Mycobacterium smegmatis; format: cell-based; details: Mycolicibacterium smegmatis, ATCC14468, M. Smegmatis ATCC 14468
[6] = tested on: K. pneumoniae; assay: Broth microdilution MIC, K. pneumoniae; format: cell-based
[7] = tested on: Candida albicans; assay: MIC against Candida albicans; format: cell-based; details: table prints none, read-out: MIC
[8] = tested on: Acinetobacter baumannii; assay: MIC with/without sub-MIC colistin, Acinetobacter baumannii; format: cell-based
Summary of the method: (§1)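 Compounds plus sub-inhibitory colistin or PMBN; MIC against Gram-negatives, with control antibiotics in parallel.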

[9] = tested on: Escherichia coli O157:H7; assay: MIC with/without sub-MIC colistin, Escherichia coli O157:H7; format: cell-based
Summary of the method: as §1

[10] = tested on: Pseudomonas aeruginosa; assay: MIC with/without sub-MIC colistin, Pseudomonas aeruginosa; format: cell-based
Summary of the method: as §1

[11] = tested on: Escherichia coli O157:H7; assay: MIC with/without PMBN, Escherichia coli O157:H7; format: cell-based
Summary of the method: as §1

[12] = tested on: Salmonella Typhimurium; assay: MIC with/without PMBN, Salmonella Typhimurium; format: cell-based
Description: (§2) The MIC of the rhodanines and control antibiotics, in the presence of a sub-inhibitory concentration of colistin or polymixin B nonapeptide (PMBN), against Gram-negative bacteria was evaluated as described before. The antibacterial activity of the rhodanines was further investigated against E. coli SM1411Δ acrAB, a strain that is deficient in the multidrug-resistant AcrAB efflux pump, as described before.

[13] = tested on: Pseudomonas aeruginosa; assay: MIC with/without PMBN, Pseudomonas aeruginosa; format: cell-based
Summary of the method: as §1

[14] = tested on: Escherichia coli Δ acrAB; assay: MIC against E. coli 1411 and AcrAB efflux pump deficient E. coli SM1411Δ acrAB; format: cell-based
Description: as §2

O=C(O)[C@H](Cc1ccccc1)N1C(=O)/C(=C/c2cccc(-c3ccc(Cl)c(Cl)c3)c2)SC1=S [Rh 2]
MIC50 ([1]; 11 MRSA strains): 4 µM (≈ 2.06 µg/mL)
MIC90 ([1]; 11 MRSA strains): 4 µM (≈ 2.06 µg/mL)
MBC ([1]; MRSA NRS 1): 4 µM (≈ 2.06 µg/mL)
MIC ([1]; MRSA NRS 1): 4 µM (≈ 2.06 µg/mL)
MBC ([1]; MRSA NRS 19): 4 µM (≈ 2.06 µg/mL)
MIC ([1]; MRSA NRS 19): 4 µM (≈ 2.06 µg/mL)
MBC ([1]; MRSA NRS 37): 4 µM (≈ 2.06 µg/mL)
MIC ([1]; MRSA NRS 37): 4 µM (≈ 2.06 µg/mL)
MBC ([1]; MRSA NRS 107): 16 µM (≈ 8.23 µg/mL)
MIC ([1]; MRSA NRS 107): 8 µM (≈ 4.12 µg/mL)
MBC ([1]; MRSA NRS 119): 4 µM (≈ 2.06 µg/mL)
MIC ([1]; MRSA NRS 119): 4 µM (≈ 2.06 µg/mL)
MBC ([1]; MRSA NRS 382): 4 µM (≈ 2.06 µg/mL)
MIC ([1]; MRSA NRS 382): 4 µM (≈ 2.06 µg/mL)
MBC ([1]; MRSA NRS 383): 4 µM (≈ 2.06 µg/mL)
MIC ([1]; MRSA NRS 383): 4 µM (≈ 2.06 µg/mL)
MBC ([1]; MRSA NRS 384): 16 µM (≈ 8.23 µg/mL)
MIC ([1]; MRSA NRS 384): 4 µM (≈ 2.06 µg/mL)
MBC ([1]; MRSA NRS 385): 4 µM (≈ 2.06 µg/mL)
MIC ([1]; MRSA NRS 385): 4 µM (≈ 2.06 µg/mL)
MBC ([1]; MRSA NRS 386): 8 µM (≈ 4.12 µg/mL)
MIC ([1]; MRSA NRS 386): 4 µM (≈ 2.06 µg/mL)
MBC ([1]; MRSA NRS 387): 4 µM (≈ 2.06 µg/mL)
MIC ([1]; MRSA NRS 387): 4 µM (≈ 2.06 µg/mL)
MIC50 ([2]; 15 VRSA strains, read-out: MIC 50): 4 µM (≈ 2.06 µg/mL)
MIC90 ([2]; 15 VRSA strains, read-out: MIC 90): 4 µM (≈ 2.06 µg/mL)
MBC ([2]; VRSA 1, read-out: MBC): 8 µM (≈ 4.12 µg/mL)
MIC ([2]; VRSA 1, read-out: MIC): 4 µM (≈ 2.06 µg/mL)
MBC ([2]; VRSA 2, read-out: MBC): 4 µM (≈ 2.06 µg/mL)
MIC ([2]; VRSA 2, read-out: MIC): 4 µM (≈ 2.06 µg/mL)
MBC ([2]; VRSA 3a, read-out: MBC): 16 µM (≈ 8.23 µg/mL)
MIC ([2]; VRSA 3a, read-out: MIC): 4 µM (≈ 2.06 µg/mL)
MBC ([2]; VRSA 3b, read-out: MBC): 4 µM (≈ 2.06 µg/mL)
MIC ([2]; VRSA 3b, read-out: MIC): 4 µM (≈ 2.06 µg/mL)
MBC ([2]; VRSA 4, read-out: MBC): 4 µM (≈ 2.06 µg/mL)
MIC ([2]; VRSA 4, read-out: MIC): 4 µM (≈ 2.06 µg/mL)
MBC ([2]; VRSA 5, read-out: MBC): 64 µM (≈ 32.9 µg/mL)
MIC ([2]; VRSA 5, read-out: MIC): 4 µM (≈ 2.06 µg/mL)
MBC ([2]; VRSA 6, read-out: MBC): 16 µM (≈ 8.23 µg/mL)
MIC ([2]; VRSA 6, read-out: MIC): 4 µM (≈ 2.06 µg/mL)
MBC ([2]; VRSA 7, read-out: MBC): 32 µM (≈ 16.5 µg/mL)
MIC ([2]; VRSA 7, read-out: MIC): 4 µM (≈ 2.06 µg/mL)
MBC ([2]; VRSA 8, read-out: MBC): 8 µM (≈ 4.12 µg/mL)
MIC ([2]; VRSA 8, read-out: MIC): 4 µM (≈ 2.06 µg/mL)
MBC ([2]; VRSA 9, read-out: MBC): 32 µM (≈ 16.5 µg/mL)
MIC ([2]; VRSA 9, read-out: MIC): 8 µM (≈ 4.12 µg/mL)
MBC ([2]; VRSA 10, read-out: MBC): 32 µM (≈ 16.5 µg/mL)
MIC ([2]; VRSA 10, read-out: MIC): 4 µM (≈ 2.06 µg/mL)
MBC ([2]; VRSA 11a, read-out: MBC): 4 µM (≈ 2.06 µg/mL)
MIC ([2]; VRSA 11a, read-out: MIC): 4 µM (≈ 2.06 µg/mL)
MBC ([2]; VRSA 11b, read-out: MBC): 64 µM (≈ 32.9 µg/mL)
MIC ([2]; VRSA 11b, read-out: MIC): 4 µM (≈ 2.06 µg/mL)
MBC ([2]; VRSA 12, read-out: MBC): 32 µM (≈ 16.5 µg/mL)
MIC ([2]; VRSA 12, read-out: MIC): 4 µM (≈ 2.06 µg/mL)
MBC ([2]; VRSA 13, read-out: MBC): 64 µM (≈ 32.9 µg/mL)
MIC ([2]; VRSA 13, read-out: MIC): 4 µM (≈ 2.06 µg/mL)
MIC50 [3]: 2 µM (≈ 1.03 µg/mL)
MIC90 [3]: 4 µM (≈ 2.06 µg/mL)
MIC ([4]; C. difficile HM-88): 4 µM (≈ 2.06 µg/mL)
MIC ([4]; C. difficile HM-745): 2 µM (≈ 1.03 µg/mL)
MIC ([4]; C. difficile HM-746): 2 µM (≈ 1.03 µg/mL)
MIC ([4]; C. difficile Isolate-1 NR-13427): 2 µM (≈ 1.03 µg/mL)
MIC ([4]; C. difficile Toxigenic Strain P8 NR-32888): 8 µM (≈ 4.12 µg/mL)
MBC ([5]; read-out: MBC): 8 µM (≈ 4.12 µg/mL)
MIC ([5]; read-out: MIC): 4 µM (≈ 2.06 µg/mL)
MIC ([6]; K. pneumoniae NR-15417): >128 µM
MIC ([6]; Klebsiella pneumoniae): > 128 µM
MIC ([7]; ATCC10231, C. albicans ATCC 10231, unit from abstract): > 64 µM
MIC ([7]; C. albicans NR 29434, unit from abstract): > 64 µM
MIC ([7]; C. albicans NR 29435, unit from abstract): > 64 µM
MIC ([7]; C. albicans NR29437, unit from abstract): > 64 µM
MIC ([7]; C. albicans NR29438, unit from abstract): > 64 µM
MIC ([7]; C. albicans NR 29446, unit from abstract): > 64 µM
MIC ([7]; C. albicans NR 29448, unit from abstract): > 64 µM
MIC ([7]; C. albicans NR 29449, unit from abstract): > 64 µM
MIC ([7]; C. albicans NR 29453, unit from abstract): > 64 µM
MIC ([7]; C. albicans NR 294436, unit from abstract): > 64 µM
MIC ([8]; Acinetobacter baumannii ATCC BAA747, colistin (+) […], read-out: MIC): >64 µM
MIC ([8]; Acinetobacter baumannii ATCC BAA19606, colistin (+) […], read-out: MIC): >64 µM
MIC ([8]; Acinetobacter baumannii, ATCCBAA747): > 128 µM
MIC ([8]; Acinetobacter baumannii, ATCCBAA19606): > 128 µM
MIC ([9]; Escherichia coli O157:H7 ATCC 35150, colistin (+) […], read-out: MIC): >64 µM
MIC ([9]; Escherichia coli O157:H7 ATCC 700728, colistin (+) […], read-out: MIC): >64 µM
MIC ([9]; Escherichia coli, ATCC35150): > 128 µM
MIC ([9]; Escherichia coli, ATCC700728): > 128 µM
MIC ([10]; Pseudomonas aeruginosa ATCC 921, colistin (+) […], read-out: MIC): >64 µM
MIC ([10]; Pseudomonas aeruginosa, ATCC921): > 128 µM
MIC ([11]; Escherichia coli O157:H7 ATCC 35150, PMBN (+) 4 μg/mL, read-out: MIC): 8 µM (≈ 4.12 µg/mL)
MIC ([11]; Escherichia coli O157:H7 ATCC 700728, PMBN (+) 4 μg/mL, read-out: MIC): >64 µM
MIC ([11]; Escherichia coli, ATCC35150): > 256 µM
MIC ([11]; Escherichia coli, ATCC700728): > 128 µM
MIC ([12]; Salmonella Typhimurium ATCC 700720, PMBN (+) 4 μg/mL, read-out: MIC): >128 µM
MIC ([12]; Salmonella enterica, ATCC 700720 / TYPHIMURIUM): > 128 µM
MIC ([13]; Pseudomonas aeruginosa ATCC 9721, PMBN (+) 4 μg/mL, read-out: MIC): >64 µM
MIC ([13]; Pseudomonas aeruginosa, ATCC9721): > 128 µM
MIC ([14]; E.coli 1411): > 64 µM
MIC ([14]; E.coli 1411 SM (Δ acrAB, AcrAB efflux pump deficient)): > 64 µM
